From patent US9234186B2, “Star-worm luciferase” (OLYMPUS CORPORATION, priority 2011, dated 2016)
Read-outs that look alike come from different tables or passages of the source.

Key:
[1] = test system: Diplocladon sp. 1 star-worm luciferase, wild type, SEQ ID NO: 1; assay: Km determination for star-worm luciferase (luminescence kinetics); format: biochemical; conditions: 0.1 M Tris-HCl pH 8.0, 8 mM MgSO4
Procedure: The measurements were carried out ten times for each sample, and the average of absorbance was used for the calculation.
A solution of 0.1 M Tris-HCl (pH 8.0) containing each purified luciferase, 4 mM of ATP, and 8 mM of MgSO4 was connected to the standard pump of a luminometer, and measurement was carried out at the same time of adding 50 μl of the solution to the well. A Luminescensor (ATTO) was used for the measurement. Measurement was repeated three times for each luciferin concentration.
The peak intensity of the obtained photon count value was plotted with respect to luciferin concentration S, defining the initial rate as V. The plots were subjected to curve fitting of Michaelis Menten type, thereby giving Km values. The curve fitting was performed by a nonlinear least-squares method, and search of parameter was performed by a Newton method.
Measurement of Km Value with Respect to ATP
Under various ATP concentrations, the luminous intensity of the obtained luciferase was measured. Based on the results, Km values was determined with respect to ATP.
Various eight types of ATP solutions were prepared by adding ATP to 0.1 M Tris-HCl (pH 8.0). These solutions contain ATP at final concentration of 10, 20, 40, 80, 160, 320, 480, or 640 μM. These ATP solutions were each injected into a 96-well microplate at a volume of 50 μl. […]

[2] = test system: CBR luciferase derived from click beetle; assay: Km determination for known luciferase CBR (luminescence kinetics); format: biochemical; conditions: 0.1 M Tris-HCl pH 8.0; enzyme solution with 1 mM D-luciferin, 8 mM MgSO4; read-out: Km for ATP
[3] = test system: HeLa cell; assay: Luminous intensity expressed in HeLa cell, star-worm luciferase vs P. pyralis luciferase (Example 3); format: cell-based; conditions: 2 mM D-luciferin, 25° C., 90 minutes, normalised to sea pansy luciferase internal control, codon-optimized gene with Kozak sequence
Procedure: The luminous intensities when expressed in a HeLa cell were compared between a star-worm luciferase and P. pyralis luciferase.
Regarding a star-worm luciferase, Kozak sequence was added to a nucleic acid optimized for expression in a mammalian cell and then inserted into between SgfI site and PmeI site of a multicloning site of pF9A CMV hRLuc neo Flexi vector (Promega). According to addition of Kozak sequence, an amino acid encoded by the codon immediately after initiation codon, proline, was changed to alanine. […] For the purpose of comparison, Kozak sequence was added to a known P. pyralis nucleic acid containing an optimized gene for expression in a mammalian cell, and then inserted into apF9A CMV hRLuc neo Flexi vector in a similar manner.
Each of the two types of plasmids obtained by the aforementioned manner was introduced into HeLa cells by means of lipofection method, and 24 hours later the cells were washed with PBS. […] According to the figure, the star-worm luciferase induced luminescence having 1.5 times the luminous intensity in a HeLa cell of that induced by P. Pyralis luciferase.

Question: `O=C(O)[C@H]1CSC(c2nc3ccc(O)cc3s2)=N1` [D-luciferin] was tested. Which Km ([1]; read-out: Km for D-luciferin, enzyme solution with 4 mM ATP) did it give?
Answer: 38.9 µM

Question: Which results are given for `Nc1ncnc2c1ncn2[C@@H]1O[C@H](COP(=O)(O)OP(=O)(O)OP(=O)(O)O)[C@@H](O)[C@H]1O` [ATP, Adenosine triphosphate]?
Answer: Km ([1]; enzyme solution with 1 mM D-luciferin, read-out: Km for ATP): 110 µM; Km [2]: 47 µM

B1: star-worm luciferase: Novel luciferase cloned from star-worm Diplocladon sp. 1, amino acid sequence SEQ ID NO: 1 (protein, listed as Diplocladon sp.)
chain: MPNEIVLHGAKPRDPLDLGTAGSQLFRSLTQFSYLREALVDAHTEQVVSYADILENSCRLAICFEKYGLRQNSVIAVCSENSAIFFYPVIAALYMGIITATVNDNYTERELFDTLNISKPELVFCSKKAIKNLTQLKNHIDFIKKLVVLDSDEDIGEVESLANFMKRYSESVIDVRNFKPRDFDAKEQVALIMSSSGTTGLPKGVVLTHRNLSVRFVHCKDPLFGTRTVPSTSILSIVPFHHAFGMFTTLSYFIVGLRVILLKRFEEEFFLSTIEKYRIPTIVLAPPVMVFLAKSPLVDQYDVSSIREVATGGAPVGIEVAEAVAKRLKINGILQGYGLTETCCAVLITPHDHVKTGSTGKVAPYVQAKVVDLSTGKSLGPNKRGELCFKSEIIMKGYFNNIKATEEAIDKEGWLHSGDVGYYDEDGHFYVVDRLKELIKYKGYQVAPAELEWLLLQHPAIKDAGVTGVPDEAAGELPGACIVLEEGHSLTEQEVIEYVAERVSPTKRIRGGVVFVDDIPKGATGKLVRSELRRMLSQKKSKL
Question: Which “luminous intensity relative to that induced by P. pyralis firefly luciferase” value [3] does the source give for B1 here?
Answer: 1.5 times
